Experiments:
[1] = Oral bioavailability in dog; type: ADME, organism-based, Canis lupus familiaris; conditions: in vivo
[2] = Oral bioavailability in monkey; type: ADME, organism-based, Macaca mulatta; conditions: rhesus monkey, in vivo
[3] = in vitro; conditions: PAMPA, pH 6.5
[4] = Bioavailability in dog at […], po by cassette assay; type: ADME, organism-based, Canis lupus familiaris; conditions: in vivo
[5] = in vivo; conditions: dog, iv, 1 mg/mL
[6] = in vivo; conditions: dog, iv, 1 mg/mL; remark: listed apart in the source
[7] = Cmax in dog at […], po by cassette assay; type: ADME, organism-based, Canis lupus familiaris; set-up: route oral; conditions: in vivo
[8] = AUC (0 to 24 hrs) in dog at […], po by cassette assay; type: ADME, organism-based, Canis lupus familiaris; set-up: time < 24 hr, route oral; conditions: plasma
[9] = Total clearance in dog at 0.1 mg/kg, iv by cassette assay; type: ADME, organism-based, Canis lupus familiaris; set-up: dose 0.1 mg/kg, route intravenous; conditions: in vivo
[10] = Intrinsic clearance in monkey liver microsome; type: ADME, Macaca mulatta; conditions: rhesus monkey, liver microsomes
[11] = AUC (0 to 24 hrs) in rat at 0.32 mg/kg, po by cassette assay; type: ADME, organism-based; set-up: time < 24 hr, dose 0.32 mg/kg, route oral; conditions: plasma
[12] = system: Rhesus monkey; assay: (§1) AUC (0 to 24 hrs) in monkey at 0.32 mg/kg, po by cassette assay; type: ADME, organism-based, Macaca mulatta, Plasma; set-up: time < 24 hr, dose 0.32 mg/kg, route oral; conditions: in vivo, 24 h
[13] = Cmax in monkey at 0.32 mg/kg, po by cassette assay; type: ADME, organism-based, Macaca mulatta; set-up: dose 0.32 mg/kg, route oral; conditions: rhesus monkey, in vivo
[14] = Terminal half life in monkey at 0.186 mg/kg, iv by cassette assay; type: ADME, organism-based, Macaca mulatta; set-up: dose 0.186 mg/kg, route intravenous; conditions: rhesus monkey, in vivo, read-out: beta t1/2 (converted)
[15] = Bioavailability in dog at 0.2 mg/kg, po by cassette assay; type: ADME, organism-based, Canis lupus familiaris; conditions: in vivo
[16] = Terminal half life in rat at 0.32 mg/kg, iv by cassette assay; type: ADME, organism-based; set-up: dose 0.32 mg/kg, route intravenous; conditions: in vivo, read-out: beta t1/2 (converted)
[17] = Intrinsic clearance in human liver microsome; type: ADME; conditions: liver microsomes
[18] = Terminal half life in dog at 0.1 mg/kg, iv by cassette assay; type: ADME, organism-based, Canis lupus familiaris; set-up: dose 0.1 mg/kg, route intravenous; conditions: in vivo, read-out: beta t1/2 (converted)
[19] = Cmax in rat at 0.32 mg/kg, po by cassette assay; type: ADME, organism-based; set-up: dose 0.32 mg/kg, route oral; conditions: in vivo
[20] = Total clearance in rat at 0.32 mg/kg, iv by cassette assay; type: ADME, organism-based; set-up: dose 0.32 mg/kg, route intravenous; conditions: in vivo
[21] = Bioavailability in rat at 0.32 mg/kg, po by cassette assay; type: ADME, organism-based; conditions: in vivo
[22] = system: Rhesus monkey; assay: (§2) Bioavailability in monkey at 0.32 mg/kg, po by cassette assay; type: ADME, organism-based, Macaca mulatta; conditions: in vivo
[23] = AUC (0 to 24 hrs) in dog at 2.0 mg/kg, po by cassette assay; type: ADME, organism-based, Canis lupus familiaris; set-up: time < 24 hr, dose 2 mg/kg, route oral; conditions: plasma
[24] = Cmax in dog at 2.0 mg/kg, po by cassette assay; type: ADME, organism-based, Canis lupus familiaris; set-up: dose 2 mg/kg, route oral; conditions: in vivo
[25] = Total clearance in monkey at 0.32 mg/kg, iv by cassette assay; type: ADME, organism-based, Macaca mulatta; set-up: dose 0.32 mg/kg, route intravenous; conditions: rhesus monkey, in vivo
[26] = Cmax in dog at 0.1 mg/kg, po by cassette assay; type: ADME, organism-based, Canis lupus familiaris; set-up: dose 0.1 mg/kg, route oral; conditions: in vivo
[27] = AUC (0 to 24 hrs) in dog at 0.1 mg/kg, po by cassette assay; type: ADME, organism-based, Canis lupus familiaris; set-up: time < 24 hr, dose 0.1 mg/kg, route oral; conditions: plasma
[28] = as §1; type: ADME, organism-based, Macaca mulatta, Plasma; set-up: time < 24 hr, dose 0.32 mg/kg, route oral; conditions: rhesus monkey, plasma
[29] = Bioavailability in dog at 0.1 mg/kg, po by cassette assay; type: ADME, organism-based, Canis lupus familiaris; conditions: in vivo
[30] = Intrinsic clearance in dog liver microsome; type: ADME, Canis lupus familiaris; conditions: liver microsomes
[31] = Terminal half life in monkey at 0.32 mg/kg, iv by cassette assay; type: ADME, organism-based, Macaca mulatta; set-up: dose 0.32 mg/kg, route intravenous; conditions: rhesus monkey, in vivo, read-out: beta t1/2 (converted)
[32] = as §2; type: ADME, organism-based, Macaca mulatta; conditions: rhesus monkey, in vivo
[33] = in vivo; conditions: dog, po, 1 mg/mL
[34] = in vivo; conditions: dog, po, 1 mg/mL; remark: listed apart in the source
[35] = in vivo; conditions: dog, plasma, po, 1 mg/mL
[36] = Total clearance in monkey at 0.83 mg/kg, iv by cassette assay; type: ADME, organism-based, Macaca mulatta; set-up: dose 0.83 mg/kg, route intravenous; conditions: rhesus monkey, in vivo
[37] = Total clearance in rat at 0.83 mg/kg, iv by cassette assay; type: ADME, organism-based; set-up: dose 0.83 mg/kg, route intravenous; conditions: in vivo
[38] = Terminal half life in dog at 0.83 mg/kg, iv by cassette assay; type: ADME, organism-based, Canis lupus familiaris; set-up: dose 0.83 mg/kg, route intravenous; conditions: in vivo, read-out: beta t1/2 (converted)
[39] = Bioavailability in dog at 3.2 mg/kg, po by cassette assay; type: ADME, organism-based, Canis lupus familiaris; conditions: in vivo
[40] = AUC (0 to 24 hrs) in rat at 1.0 mg/kg, po by cassette assay; type: ADME, organism-based; set-up: time < 24 hr, dose 1 mg/kg, route oral; conditions: plasma
[41] = AUC (0 to 24 hrs) […] at 1.0 mg/kg, po by cassette assay; type: ADME, organism-based; set-up: time < 24 hr, dose 1 mg/kg, route oral; conditions: plasma
[42] = Terminal half life in rat at 0.83 mg/kg, iv by cassette assay; type: ADME, organism-based; set-up: dose 0.83 mg/kg, route intravenous; conditions: in vivo, read-out: beta t1/2 (converted)
[43] = Terminal half life in monkey at 0.83 mg/kg, iv by cassette assay; type: ADME, organism-based, Macaca mulatta; set-up: dose 0.83 mg/kg, route intravenous; conditions: rhesus monkey, in vivo, read-out: beta t1/2 (converted)
[44] = Cmax in dog at 3.2 mg/kg, po by cassette assay; type: ADME, organism-based, Canis lupus familiaris; set-up: dose 3.2 mg/kg, route oral; conditions: in vivo
[45] = AUC (0 to 24 hrs) in monkey at 1.0 mg/kg, po by cassette assay; type: ADME, organism-based, Macaca mulatta; set-up: time < 24 hr, dose 1 mg/kg, route oral; conditions: rhesus monkey, plasma
[46] = Intrinsic clearance in rat liver microsome; type: ADME; conditions: liver microsomes
[47] = Total clearance in dog at 0.83 mg/kg, iv by cassette assay; type: ADME, organism-based, Canis lupus familiaris; set-up: dose 0.83 mg/kg, route intravenous; conditions: in vivo
[48] = Cmax in monkey at 1.0 mg/kg, po by cassette assay; type: ADME, organism-based, Macaca mulatta; set-up: dose 1 mg/kg, route oral; conditions: rhesus monkey, in vivo
[49] = Cmax […] at 1.0 mg/kg, po by cassette assay; type: ADME, organism-based; set-up: dose 1 mg/kg, route oral; conditions: in vivo
[50] = Bioavailability in rat at 1.0 mg/kg, po by cassette assay; type: ADME, organism-based; conditions: in vivo
[51] = AUC (0 to 24 hrs) in dog at 3.2 mg/kg, po by cassette assay; type: ADME, organism-based, Canis lupus familiaris; set-up: time < 24 hr, dose 3.2 mg/kg, route oral; conditions: plasma
[52] = Cmax in rat at 1.0 mg/kg, po by cassette assay; type: ADME, organism-based; set-up: dose 1 mg/kg, route oral; conditions: in vivo
[53] = Bioavailability in monkey at 1.0 mg/kg, po by cassette assay; type: ADME, organism-based, Macaca mulatta; conditions: rhesus monkey, in vivo

O=S(=O)(Nc1ccc(CCNC[C@H](O)c2cccnc2)cc1)c1ccc(-c2nc(-c3ccc(C(F)(F)F)cc3)cs2)cc1
bioavailability [1]: 27%
bioavailability [2]: 4%

O=C(O)c1ccc(-c2ccc(CCNC[C@H](O)c3cccc(Cl)c3)cc2)cc1OC1CCCCC1
Papp [3]: > 30 ×10⁻⁶ cm/s

CC(C)Cc1cc(-c2ccc(CCNC[C@H](O)c3ccccc3)cc2)ccc1C(=O)O
Papp [3]: 26 ×10⁻⁶ cm/s

CC(C)Sc1cc(-c2ccc(CCNC[C@H](O)c3ccccc3)cc2)ccc1C(=O)O
Papp [3]: 10 ×10⁻⁶ cm/s

O=C(O)c1ccc(-c2ccc(CCNC[C@H](O)c3cccc(Cl)c3)cc2)cc1
bioavailability [4]: > 95%
clearance [5]: 4 mL/min/kg
half-life [6]: 12.3 h
Cmax [7]: 111 ng/mL
AUC(0-t) at 24 h [8]: 1980 ng·h/mL

CC(C)Oc1cc(-c2ccc(CCNC[C@H](O)c3ccccc3)cc2)ccc1C(=O)O
clearance [9]: 4.8 mL/min/kg
CLint scaled [10]: < 1 mL/min/kg
AUC(0-t) at 24 h [11]: 565 ng·h/mL
AUC [12]: 209 ng·h/mL
Papp [3]: 18 ×10⁻⁶ cm/s
Cmax [13]: 185 ng/mL
half-life [14]: 22.2 h
bioavailability [15]: 68%
half-life [16]: 9.5 h
CLint scaled [17]: < 1 mL/min/kg
half-life [18]: 14.5 h
Cmax [19]: 94.7 ng/mL
clearance [20]: 7.5 mL/min/kg
bioavailability [21]: 80%
F [22]: 62%
AUC(0-t) at 24 h [23]: 438 ng·h/mL
Cmax [24]: 25 ng/mL

COc1cc(-c2ccc(CCNC[C@H](O)c3cccc(Cl)c3)cc2)ccc1C(=O)O
Papp [3]: 3.3 ×10⁻⁶ cm/s

CC(C)Oc1cc(-c2ccc(CCNC[C@H](O)c3cccc(Cl)c3)cc2)ccc1C(=O)O
clearance [9]: 4.9 mL/min/kg
clearance [25]: 0.9 mL/min/kg
AUC(0-t) at 24 h [11]: 700 ng·h/mL
Cmax [26]: 13 ng/mL
AUC(0-t) at 24 h [27]: 149 ng·h/mL
AUC(0-t) at 24 h [28]: 4980 ng·h/mL
Papp [3]: > 30 ×10⁻⁶ cm/s
bioavailability [29]: 45%
Cmax [13]: 171 ng/mL
half-life [16]: 4.8 h
CLint scaled [17]: < 1 mL/min/kg
half-life [18]: 9.9 h
Cmax [19]: 146 ng/mL
CLint scaled [30]: < 1 mL/min/kg
half-life [31]: 18.6 h
clearance [20]: 4.4 mL/min/kg
bioavailability [21]: 61%
bioavailability [32]: 83%

O=C(O)c1ccc(-c2ccc(CCNC[C@H](O)c3ccccc3)cc2)cc1OC1CCCCC1
Papp [3]: > 30 ×10⁻⁶ cm/s

O=C(O)c1ccc(Oc2ccc(CCNC[C@H](O)c3cccc(Cl)c3)cc2)cc1
Cmax [33]: 236 ng/mL
clearance [5]: 4.1 mL/min/kg
half-life [6]: 6.2 h
bioavailability [34]: 40%
AUC(0-t) at 24 h [35]: 2470 ng·h/mL

CCOC(=O)COc1ccc2c(c1)C[C@@H](NC[C@H](O)c1cccc(Cl)c1)CCC2
clearance [36]: 11.8 mL/min/kg
clearance [37]: 47.9 mL/min/kg
half-life [38]: 1.63 h
bioavailability [39]: 73%
AUC(0-t) at 24 h [40]: 83 ng·h/mL
AUC(0-t) at 24 h [41]: 4100 ng·h/mL
CLint scaled [17]: 18.2 mL/min/kg
half-life [42]: 0.3 h
half-life [43]: 2.28 h
CLint scaled [30]: 35.4 mL/min/kg
Cmax [44]: 2070 ng/mL
AUC(0-t) at 24 h [45]: 398 ng·h/mL
CLint scaled [46]: 35.4 mL/min/kg
clearance [47]: 3.7 mL/min/kg
Cmax [48]: 184 ng/mL
Cmax [49]: 1340 ng/mL
bioavailability [50]: 29%
AUC(0-t) at 24 h [51]: 10600 ng·h/mL
Cmax [52]: 38 ng/mL
bioavailability [53]: 35%

O=C(O)c1cccc(-c2cccc(NCCNC[C@H](O)c3cccc(Cl)c3)c2)c1 [SOLABEGRON]
bioavailability [2]: 46%
